US4490388A, “Amidine compound and anticomplement agent comprising same” (Torii & Co., Ltd., priority 1981, dated 1984)
Values joined by “and” are separate entries in the source; they are usually repeats but may differ in a detail not shown here. Equal entries are not always repeated. Where two headings read alike, the source gives them in different places.

What was measured:
[1] = target: T1, Trypsin (Bos taurus, UniProt P00760); assay: Anti-trypsin activity (hydrolysis of TAME); assay type: biochemical; conditions: for IC50: molar concentration inhibiting 50% of TAME hydrolysis, read-out: id50, Trypsin
T1 sequence (P00760 24-246): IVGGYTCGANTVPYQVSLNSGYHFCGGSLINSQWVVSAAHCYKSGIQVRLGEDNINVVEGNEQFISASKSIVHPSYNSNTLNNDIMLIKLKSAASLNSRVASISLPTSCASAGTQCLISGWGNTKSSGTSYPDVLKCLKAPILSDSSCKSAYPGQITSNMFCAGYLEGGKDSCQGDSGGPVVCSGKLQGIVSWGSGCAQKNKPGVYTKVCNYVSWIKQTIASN
Procedure: (§1) The anti-trypsin, anti-plasmin, anti-kallikrein and anti-thrombin activities were determined according to the method of Muramatsu et al. [M. Muramatsu, T. Onishi, S. Makino, Y. Hayashi and S. Fujii, J. of Biochem., 58, 214 (1965)]. The data summarized in Table 1 are expressed in terms of molar concentration (id50) of the test compound which inhibits 50% of the activity of each enzyme to hydrolyze TAME (tosylarginine methyl ester). The compound No. corresponds to the compound number shown in Examples.

[2] = target: T2, C1s (Homo sapiens, UniProt P09871); assay: Anti-C1 esterase activity, C1s (hydrolysis of ATEE); assay type: biochemical
T2 sequence (P09871 438-688 limits assumed): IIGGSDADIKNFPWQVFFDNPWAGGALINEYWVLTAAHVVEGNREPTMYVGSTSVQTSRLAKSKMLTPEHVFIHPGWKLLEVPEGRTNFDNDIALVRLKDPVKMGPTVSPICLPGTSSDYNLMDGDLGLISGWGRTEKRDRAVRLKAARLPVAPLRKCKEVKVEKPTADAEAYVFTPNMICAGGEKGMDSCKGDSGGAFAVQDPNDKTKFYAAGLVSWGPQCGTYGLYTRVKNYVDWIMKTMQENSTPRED
T2 sequence (P09871 16-437 partner limits assumed): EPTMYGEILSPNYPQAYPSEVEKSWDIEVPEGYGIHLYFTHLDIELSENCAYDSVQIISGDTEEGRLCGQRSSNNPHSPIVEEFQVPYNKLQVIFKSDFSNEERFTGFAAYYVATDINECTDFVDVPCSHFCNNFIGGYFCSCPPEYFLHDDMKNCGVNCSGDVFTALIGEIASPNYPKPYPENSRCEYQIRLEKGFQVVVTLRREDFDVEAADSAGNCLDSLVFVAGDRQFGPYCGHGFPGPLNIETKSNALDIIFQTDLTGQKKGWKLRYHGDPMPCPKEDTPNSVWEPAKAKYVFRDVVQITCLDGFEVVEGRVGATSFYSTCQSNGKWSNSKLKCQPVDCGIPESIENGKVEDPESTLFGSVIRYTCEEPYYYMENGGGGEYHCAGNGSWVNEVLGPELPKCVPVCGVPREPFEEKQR
Procedure: The anti-C1 esterase (C1r, C1s) activity was determined according to the method of Okamura et al. [K. Okamura, M. Muramatsu and B. Fujii, Biochem. Biophys. Acta, 295, 252-257 (1973)]. The inhibition of complement mediated hemolysis was determined according to the method of Baker et al. [B. R. Baker and E. H. Erickson, J. Med. Chem., 12, 408-414 (1969)]. The figures in Table 2 have the following meanings:
C1s: Molar concentration of the test compound which inhibits 50% of the ability of C1s to hydrolyse ATEE (acetyltyrosin ethyl ester).

[3] = target: Thrombin (Bos taurus, UniProt P00735); assay: Anti-thrombin activity (hydrolysis of TAME); assay type: biochemical
Procedure: as §1

[4] = Toxicity, median lethal dose (LD50); conditions: in vivo
[5] = target: Plasmin (Homo sapiens, UniProt P00747); assay: Anti-plasmin activity (hydrolysis of TAME); assay type: biochemical; conditions: molar concentration inhibiting 50% of TAME hydrolysis; read-out: id50, Plasmin
Procedure: as §1

[6] = tested on: Forssman shock; assay: Forssman shock (survival time after hemolysin); assay type: in vivo, guinea pig (male Hartlay); conditions: for time elapsed until death, average: control average 361 sec.
Source text: Quite different from other animals, guinea pig has on the surface of its organs a specific antigen called Forssman antigen which specifically reacts with the antibody of sheep erythrocyte. Forssman shock is based on the above principle and is a shock caused by the administration of antibody of sheep erythrocyte to a guinea pig. The Forssman shock was investigated in detail by many researches and it was definitely shown that this shock is a model case where the complement plays the principal part and that the shock is associated with a classical pathway in which the complement system is activated progressively starting from C1. Since the participation of complement in autoimmune diseases has been established, the Forssman shock can be said to be a useful means for testing a drug for autoimmune diseases. A drug effective for the treatment of Forssman shock is useful as a drug of autoimmune diseases. [Anti-trypsin, anti-plasmin, anti-kallikrein and anti-thrombin activities]
The experiment was performed according to the method of I. G. Offerness et al. [Biochem. Pharmacol., 27 (14), 1873-1878 (1978)]. Male Hartlay guinea pig of about 300 g in body weight was used. Each guinea pig of the control group was administered intravenously with 0.5 ml (minimum dose to cause the shock) of hemolysin (commercial hemolysin, 5,000 U as assayed by the method of Ogata) and the time elapsed until death was observed. For the test group, each guinea pig was administered intravenously with the test compound 5 minutes before the administration of hemolysin and the time (second) elapsed until death was observed.

[7] = tested on: complement; assay: Inhibition of complement mediated hemolysis; assay type: cell-based; conditions: read-out: Inhibition of complement mediated hemolysis (%)
Procedure: The complement mediated hemolysis is widely used as a means to determine the titration of complement. The principle of this method is based on the fact that hemolysis is caused by the activation of complement, when the latter is added to a complex (immune complex) of erythrocytes and the autibody thereof. The degree of hemolysis varies in proportion to the amount of complement added. Therefore, when a known amount of complement admixed with a C1 esterase inhibitor is used, the hemolysis must be suppressed in proportion to the inhibitory activity.
The anti-C1 esterase (C1r, C1s) activity was determined according to the method of Okamura et al. [K. Okamura, M. Muramatsu and B. Fujii, Biochem. Biophys. […] The inhibition of complement mediated hemolysis was determined according to the method of Baker et al. [B. R. Baker and E. H. Erickson, J. Med. Chem., 12, 408-414 (1969)].

[8] = target: T3, C1r (Homo sapiens, UniProt P00736); assay: Anti-C1 esterase activity, C1r (hydrolysis of AAME); assay type: biochemical; conditions: for IC50: molar concentration inhibiting 50% of AAME hydrolysis, read-out: Anti-C1 activity, C1r id50; for inhibition at 10 µM: at 1×10^-5 M, read-out: Anti-C1 activity, C1r percent inhibition
T3 sequence (P00736 464-705 limits assumed): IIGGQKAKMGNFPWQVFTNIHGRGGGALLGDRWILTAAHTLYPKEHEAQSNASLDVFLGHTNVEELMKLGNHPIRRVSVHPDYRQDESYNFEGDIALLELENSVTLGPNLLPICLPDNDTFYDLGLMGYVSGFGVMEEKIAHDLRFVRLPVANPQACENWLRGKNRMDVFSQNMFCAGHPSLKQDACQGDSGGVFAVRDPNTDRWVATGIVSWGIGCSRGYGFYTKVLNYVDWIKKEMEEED
T3 sequence (P00736 18-463 partner limits assumed): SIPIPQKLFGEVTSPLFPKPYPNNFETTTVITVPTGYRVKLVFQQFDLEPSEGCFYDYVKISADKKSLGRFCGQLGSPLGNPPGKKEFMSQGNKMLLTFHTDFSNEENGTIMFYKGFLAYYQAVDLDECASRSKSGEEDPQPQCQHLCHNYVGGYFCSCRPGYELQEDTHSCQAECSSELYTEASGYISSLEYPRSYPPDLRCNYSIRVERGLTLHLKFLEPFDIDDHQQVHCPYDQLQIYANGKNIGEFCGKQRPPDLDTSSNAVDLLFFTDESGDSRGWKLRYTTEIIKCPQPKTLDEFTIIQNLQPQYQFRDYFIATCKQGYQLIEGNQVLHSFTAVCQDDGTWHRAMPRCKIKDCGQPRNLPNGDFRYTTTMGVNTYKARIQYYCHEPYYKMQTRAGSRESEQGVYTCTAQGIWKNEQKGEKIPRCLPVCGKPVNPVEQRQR
Procedure: The anti-C1 esterase (C1r, C1s) activity was determined according to the method of Okamura et al. [K. Okamura, M. Muramatsu and B. Fujii, Biochem. Biophys. […] The figures in Table 2 have the following meanings:
C1r: Molar concentration of the test compound which inhibits 50% of the ability of C1r to hydrolyse AAME (acetylarginin methyl ester) (id50).

Chain of Plasmin (P00747 581-810 limits assumed): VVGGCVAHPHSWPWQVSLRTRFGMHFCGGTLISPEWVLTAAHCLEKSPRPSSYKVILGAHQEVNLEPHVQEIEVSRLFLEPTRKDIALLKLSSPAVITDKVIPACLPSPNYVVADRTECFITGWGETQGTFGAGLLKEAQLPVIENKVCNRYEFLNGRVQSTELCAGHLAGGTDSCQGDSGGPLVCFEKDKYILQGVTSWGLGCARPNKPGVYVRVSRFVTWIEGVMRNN
Chain of Plasmin (P00747 97-580 partner limits assumed): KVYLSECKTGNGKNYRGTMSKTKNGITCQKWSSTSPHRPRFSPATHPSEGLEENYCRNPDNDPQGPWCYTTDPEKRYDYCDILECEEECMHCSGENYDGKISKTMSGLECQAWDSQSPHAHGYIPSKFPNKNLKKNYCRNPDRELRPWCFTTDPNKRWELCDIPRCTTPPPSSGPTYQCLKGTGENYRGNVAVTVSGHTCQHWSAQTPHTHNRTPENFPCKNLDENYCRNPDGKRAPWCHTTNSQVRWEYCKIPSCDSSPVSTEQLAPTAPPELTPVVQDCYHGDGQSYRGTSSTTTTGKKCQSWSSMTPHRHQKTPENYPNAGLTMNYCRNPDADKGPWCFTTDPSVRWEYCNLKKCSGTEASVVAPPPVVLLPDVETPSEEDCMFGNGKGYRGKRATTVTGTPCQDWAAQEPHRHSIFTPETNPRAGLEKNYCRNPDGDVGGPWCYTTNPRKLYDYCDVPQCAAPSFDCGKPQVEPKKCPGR

Row | inhibition at 10 µM [8] [%] | SMILES | IC50 [1] [µM] | IC50 [3] [µM] | IC50 [5] [µM] | IC50 [8] [µM] | inhibition at 100 µM ([7]; 1 × 10^-4 M) [%] | inhibition at 10 µM ([7]; 1 × 10^-5 M) [%] | inhibition at 1 µM ([7]; 1 × 10^-6 M) [%] | inhibition at 0.1 µM ([7]; 1 × 10^-7 M) [%] | other results
1 | – | N=C(N)C=Cc1ccc(OC(=O)c2ccc(NC(=N)N)cc2)cc1 [Compound 35, 4-(β-amidinoethenyl)phenyl 4-guanidinobenzoate] | 0.02 | 1 | 0.9 | 4 | – | – | – | – | IC50 ([2]; molar concentration inhibiting 50% of ATEE hydrolysis, read-out: Anti-C1 activity, C1s id50): 0.3 µM; LD50 ([4]; ip): 133 mg/kg; LD50 ([4]; po): 1200 mg/kg; time elapsed until death ([6]; 1 mg/kg i.v. 5 minutes before hemolysin, individual animals 1-4): 490 s and 375 s and 255 s and 285 s; time elapsed until death, average ([6]; 1 mg/kg i.v.): 351 s; survival of individual animal ([6]; 3 mg/kg i.v. 5 minutes before hemolysin, animal 2): Survival; time elapsed until death ([6]; 3 mg/kg i.v. 5 minutes before hemolysin, individual animals): 365 s and 4000 s and 690 s; time elapsed until death, average ([6]; 3 mg/kg i.v.): 528 s; inhibition at 0.1 µM [7]: 46%; inhibition at 1 µM [7]: 97%; inhibition at 10 µM [7]: 100%; inhibition at 100 µM [7]: 100%
2 | – | N=C(N)C=Cc1ccc(OC(=O)c2ccc(CN)cc2)cc1 [Compound 34] | – | – | – | – | 100 | 99 | 99 | 86 | LD50 ([4]; ip): 200 mg/kg; LD50 ([4]; po): 2500 mg/kg
3 | – | N=C(N)C=Cc1ccc(OC(=O)c2ccccc2)cc1 [Compound 12, 4-(β-amidinoethenyl)-phenyl benzoate] | 0.6 | 3 | 2 | 0.8 | 100 | 100 | 54 | 11 | IC50 [2]: 0.3 µM
4 | – | CSc1ccc(C(=O)Oc2ccc(C=CC(=N)N)cc2)cc1 [Compound 28] | – | 3 | 1 | 0.9 | 97 | 71 | 34 | – | inhibition at 10 µM ([1]; at 1×10^-5 M, read-out: percentage inhibition, Trypsin): 26%; inhibition at 0.1 µM [7]: 23%
5 | – | N=C(N)C=Cc1ccc(OC(=O)[C@H]2CC[C@H](CNC(=O)OCc3ccccc3)CC2)cc1 [Compound 11, 4-(β-amidinoethenyl)phenyl trans-4-benzyloxycarbonylaminomethylcyclohexanecarboxylate] | 5 | > 10 | 0.3 | 5 | – | 99 | 82 | – | inhibition at 0.1 µM [7]: 25%; inhibition at 100 µM [7]: 95%
6 | – | Cc1ccc(C(=O)Oc2ccc(C=CC(=N)N)cc2)cc1 [Compound 20] | 0.03 | > 10 | 4 | 1 | 97 | 75 | 38 | 17 | –
7 | – | CC(C)(C)c1ccc(C(=O)Oc2ccc(C=CC(=N)N)cc2)cc1 [Compound 22] | 5 | 3 | 3 | 5 | 88 | 76 | 25 | 11 | –
8 | 31 | N=C(N)C=Cc1ccc(OC(=O)CCCCCNC(=O)OCc2ccccc2)cc1 [Compound 7, 4-(β-amidinoethenyl)phenyl 6-benzyloxycarbonylaminocaproate] | 7 | > 10 | 5 | – | 98 | 64 | 13 | 14 | –
9 | – | N=C(N)C=Cc1ccc(OC(=O)CCCCCN)cc1 [Compound 8, 4-(β-amidinoethenyl)phenyl 6-aminohexanoate] | 2 | > 10 | > 10 | > 10 | 27 | – | 9 | 0 | inhibition at 10 µM [7]: 15%
10 | 46 | N=C(N)C=Cc1ccc(OC(=O)[C@H]2CC[C@H](CN)CC2)cc1 [Compound 10, 4-(β-amidinoethenyl)phenyl trans-4-aminomethylcyclohexanecarboxylate] | 6 | > 10 | 6 | – | 100 | 99 | 98 | 74 | –
11 | 20 | N=C(N)C=Cc1ccc(OC(=O)C=Cc2cccc(C(F)(F)F)c2)cc1 [Compound 41] | 3 | > 10 | 3 | – | 71 | 10 | 10 | 0 | –

Row | SMILES | inhibition at 10 µM [8] [%] | IC50 [1] [µM] | IC50 [3] [µM] | IC50 [5] [µM] | IC50 [8] [µM] | inhibition at 100 µM ([7]; 1 × 10^-4 M) [%] | inhibition at 10 µM ([7]; 1 × 10^-5 M) [%] | inhibition at 1 µM ([7]; 1 × 10^-6 M) [%] | inhibition at 0.1 µM ([7]; 1 × 10^-7 M) [%] | other results
12 | N=C(N)C=Cc1ccc(OC(=O)CCCCCNC(=N)N)cc1 [Compound 9, 4-(β-amidinoethenyl)phenyl 6-guanidinocaproate] | 28 | 0.03 | > 10 | > 10 | – | 97 | 72 | – | 0 | inhibition at 1 µM [7]: 6%
